The source of these data is patent US20210387996A1, “TRICYCLIC COMPOUNDS FOR THE TREATMENT AND PROPHYLAXIS OF HEPATITIS B VIRUS DISEASE” (priority 2018, published 2021).

In general, IC50 refers to the midpoint of a concentration-inhibition curve.

In test [1] the test system is HBeAg level in HepDES19 cells (surrogate marker for cccDNA). The test can be described thus: Engineered HepDES19 primary screen assay (HBeAg as surrogate marker for cccDNA). The test is classed as cell-based, HBV. To be noted: Hepatitis B virus, HepDES19, 120 h, read-out: IC50 (HBeAg level, HepDES19 primary screen assay). The text has this:
The assay was employed to screen for novel cccDNA inhibitors. HepDES19 is a cccDNA-producing cell line. In this cell line, HBeAg in the cell culture supernatant as surrogate marker, as HBeAg production depends on cccDNA level and activity. HepDES19 is an engineered cell line which contains a 1.1 unit length HBV genome, and pgRNA transcription from the transgene is controlled by Tetracycline (Tet). In the absence of Tet, pgRNA transcription will be induced, but HBV e antigen (HBeAg) could not be produced from this pgRNA due to very short leader sequence before the HBeAg start codon and the start codon is disrupted. Only after cccDNA is formed, the missing leader sequence and start codon mutation would be restored from the 3′-terminal redundancy of pgRNA, and then HBeAg could be synthesized. Therefore, HBeAg could be used as a surrogate marker for cccDNA (Zhou, T. et al., Antiviral Res. (2006), 72(2), 116-124; Guo, H. et al., J. Virol. (2007), 81(22), 12472-12484).
HepDES19 cells were seeded at 2×10^6 cells per T150 flask and cultured with the culture medium (Dulbecco's Modified Eagle Medium: Nutrient Mixture F-12 [DMEM-F12, Gibco Cat. 11320-82], 10% Fetal Bovine Serum [FBS, Clontech Cat. 631101], 0.1 mM Non-Essential Amino Acids Solution [NEAA, Gibco Cat. 11140-050], 50 μg/mL Penicillin-Streptomycin [PS, Invitrogen Cat. 15140-163], 500 μg/mL Geneticin [G418, Invitrogen Cat. 10131-027]) containing 3 μg/mL Tet (Sigma, Cat. 87128) for 5 days. Cells were then seeded at 4×10^6 cells per T150 in the same culture medium as described above in the absence of Tet for 8 days. Cells were then harvested and frozen at density of 2×10^6 cells per mL. For compound testing, the frozen cells were thawed and seeded into 96-well plates at a density of 6×10^4 cells per well. At 24 hours after seeding, half log serial dilutions of compounds made with Dimethyl sulfoxide (DMSO, Sigma, Cat. D2650) were further diluted with the same culture medium as described above before they were added to the cells to reach desired final compound concentrations and 1% DMSO concentration. Plates were then incubated at 37° C. for another 5 days before measurement of HBeAg level and cell viability. Intracellular HBeAg level were measured with enzyme-linked immunosorbent assay (ELISA) kit (Shanghai Kehua Diagnostic Medical Products Co., Ltd). Cell viability was assessed using Cell Counting Kit-8 (Donjindo, Cat. CK04-20). IC50 values were derived from the dose-response curve using 4 parameter logistic curve fit method.
The compounds of the present invention were tested for their capacity to inhibit extracellular HBeAg level as described herein.

Test [2] relates to HBV (extracellular HBsAg) in PHH. As to the kind of experiment: Cryopreserved primary human hepatocytes (PHH) HBV infection assay, extracellular HBsAg (CLIA). To be noted: Hepatitis B virus, Hepatocyte, 216 h, read-out: HBsAg IC50. The test is classed as cell-based. On the procedure: This assay is used to confirm the anti-HBV effect of the compounds in HBV PHH infection assay. Cryopreserved PHH (BioreclamationIVT, Lot YJM) was thawed at 37° C. and gently transferred into pre-warmed InVitroGRO HT medium (BioreclamationIVT, Cat. S03317). The mixture was centrifuged at 70 relative centrifugal force (RCF) for 3 mins at RT, and the supernatant was discarded. Pre-warmed InVitroGRO CP medium (BioreclamationIVT, Cat #S03316) was added to the cell pellet to gently re-suspend cells. The cells were seeded at the density of 5.8×10^4 cells per well to collagen I coated 96-well plate (Gibco, Cat. A1142803) with the InVitroGRO CP medium. All plates were incubated at 37° C. with 5% CO2 and 85% humidity.
At 20 hours after plating, the medium was changed to PHH culture medium (Dulbecco's Modified Eagle Medium (DMEM)/F12 (1:1) (Gibco, Cat. 11320-033), 10% fetal bovine serum (Gibco Cat. 10099141), 100 U/mL penicillin, 100 μg/mL streptomycin (Gibco, Cat. 151401-122), 5 ng/mL human epidermal growth factor (Invitrogen Cat. PHG0311L), 20 ng/mL dexamethasone (Sigma, Cat. D4902) and 250 ng/mL human recombinant insulin (Gibco, Cat. 12585-014)). And the cells were incubated at 37° C. with 5% CO2 and 85% humidity for 4 hours. The medium was then changed to pre-warmed PHH culture medium containing 4% polyethylene glycol (PEG) MW8000 (Sigma, Cat. P1458-50ML) and 1% DMSO (Sigma, Cat. D2650). 5.8×10^6 genomic equivalents of HBV were added into the medium.
At 24 hours post-infection, the cells were gently washed with PBS and refreshed with PHH culture medium supplemented with 1% DMSO, and 0.25 mg/mL Matrix gel (Corning, Cat. 356237) at 200 μL per well. All plates were immediately placed in at 37° C. CO2 incubator.
24 hours later, serial dilutions of compounds made with DMSO were further diluted with the same culture medium (PHH culture medium supplemented with 1% DMSO and 0.25 mg/mL Matrix gel as described above) before they were added to the cells to reach desired final compound concentrations and 1% DMSO concentration. The medium containing the compounds were refreshed every three days.
At 9 days post-compound treatment, extracellular HBsAg level were measured with Chemiluminescence Immuno Assay (CLIA) kit (Autobio, HBsAg Quantitative CLIA). Extracellular HBV DNA was extracted by MagNA Pure 96 system (Roche) and then determined by quantitative PCR with the following primers and probe: […]
HBsAg IC50 and HBV DNA IC50 values were derived from the dose-response curve using 4 parameter logistic curve fit method. The compounds of formula (I) have HBsAg IC50<20 μM, particularly <1 μM; and HBV DNA IC50<50 μM.

Turning to `CC(C)(C)OC(=O)N1CCc2c(oc3c(Cl)cccc3c2=O)C1` [Example 1, tert-butyl 9-chloro-5-oxo-3,4-dihydro-1H-chromeno[2,3-c]pyridine-2(5H)-carboxylate], the results for the concentration for half-maximal inhibition (IC50) in test [1] and in test [2] were 9.12 µM and 10.6 µM, respectively.

For the molecule `COc1ccc(N2CCc3c(oc4c(Cl)cccc4c3=O)C2=O)cc1` [Example 9, 9-chloro-2-(4-methoxyphenyl)-3,4-dihydro-1H-chromeno[2,3-c]pyridine-1,5(2H)-dione], the IC50 in test [1] amounted to 2.73 µM; in test [2], 3.52 µM. On the same counts, the results for `O=C1c2oc3c(Cl)cccc3c(=O)c2CCN1c1ccc(Cl)cc1` [Example 12, 9-chloro-2-(4-chlorophenyl)-3,4-dihydro-1H-chromeno[2,3-c]pyridine-1,5(2H)-dione] are 0.82 µM and 2.76 µM. With `O=C1c2oc3c(Cl)cccc3c(=O)c2CCN1c1ccc(F)cc1` [Example 14, 9-chloro-2-(4-fluorophenyl)-3,4-dihydro-2H-chromeno[2,3-c]pyridine-1,5-dione], the concentration for half-maximal inhibition (IC50) in test [1] turned out to be 2.07 µM; in test [2], 9.85 µM. `O=C1c2oc3c(Cl)cccc3c(=O)c2CCN1c1ccc(Cl)nc1` [Example 16, 9-chloro-2-(6-chloropyridin-3-yl)-3,4-dihydro-2H-chromeno[2,3-c]pyridine-1,5-dione]: the IC50 in test [1] is 34.4 µM; in test [2], 3.17 µM. Turning to `COc1cc(Cl)ccc1N1CCc2c(oc3c(Cl)cccc3c2=O)C1=O` [Example 17, 9-chloro-2-(4-chloro-2-methoxyphenyl)-3,4-dihydro-2H-chromeno[2,3-c]pyridine-1,5-dione], the values for the IC50 in test [1] and in test [2] were 2.4 µM and 14.7 µM, respectively.

Take `O=C1c2oc3c(Cl)cccc3c(=O)c2CCN1c1ccc(F)c(C(F)(F)F)c1` [Example 18, 9-chloro-2-(4-fluoro-3-(trifluoromethyl)phenyl)-3,4-dihydro-2H-chromeno[2,3-c]pyridine-1,5-dione]: the concentration for half-maximal inhibition (IC50) was found to be 14 µM in test [1] and 2.84 µM in test [2]. Consider `O=C1c2oc3c(Cl)cccc3c(=O)c2CCN1c1ccccc1` [Example 19, 9-chloro-2-phenyl-3,4-dihydro-2H-chromeno[2,3-c]pyridine-1,5-dione], for which the values for the IC50 in test [1] and in test [2] were 0.56 µM and 16.9 µM, respectively. The like results for `O=C1c2oc3c(Cl)cccc3c(=O)c2CCN1c1ccc(C(F)(F)F)cc1` [Example 20, 9-chloro-2-(4-(trifluoromethyl)phenyl)-3,4-dihydro-2H-chromeno[2,3-c]pyridine-1,5-dione] were, in that order, 5.68 µM and 7.4 µM.

Regarding `O=C1c2oc3c(Cl)cccc3c(=O)c2CCN1c1ccc(Cl)c(C(F)(F)F)c1` [Example 22, 9-chloro-2-(4-chloro-3-(trifluoromethyl)phenyl)-3,4-dihydro-2H-chromeno[2,3-c]pyridine-1,5-dione], the results for the IC50 in test [1] and in test [2] were 25.6 µM and 3.44 µM, respectively. With `O=C1c2oc3c(Cl)cccc3c(=O)c2CCN1c1ccccc1OC(F)(F)F` [Example 23, 9-chloro-2-(2-(trifluoromethoxy)phenyl)-3,4-dihydro-2H-chromeno[2,3-c]pyridine-1,5-dione], the concentration for half-maximal inhibition (IC50) in test [1] is 6.88 µM; in test [2] it was 16.5 µM. For the molecule `O=C(O)C1CC(Oc2ccccc2N2CCc3c(oc4c(Cl)cccc4c3=O)C2=O)C1` (stereo not shown) [Example 25, 3-(2-(9-chloro-1,5-dioxo-1,3,4,5-tetrahydro-2H-chromeno[2,3-c]pyridin-2-yl)phenoxy)cyclobutane-1-carboxylic Acid], the IC50 in test [2] was 48.4 µM.

`O=C(O)C1CC(Oc2cc(Cl)ccc2N2CCc3c(oc4c(Cl)cccc4c3=O)C2=O)C1` (stereo not shown) [Example 26, 3-(5-chloro-2-(9-chloro-1,5-dioxo-1,3,4,5-tetrahydro-2H-chromeno[2,3-c]pyridin-2-yl)phenoxy)cyclobutane-1-carboxylic Acid]: the IC50 in test [2] is 18.1 µM. On to `O=C1c2oc3c(Cl)cccc3c(=O)c2CCN1c1ccc(Cl)cc1C(F)(F)F` [Example 27, 9-chloro-2-(4-chloro-2-(trifluoromethyl)phenyl)-3,4-dihydro-2H-chromeno[2,3-c]pyridine-1,5-dione], for which the IC50 in test [1] came to 0.89 µM; in test [2], 13 µM. Consider `O=C1c2oc3c(Cl)cccc3c(=O)c2CCN1c1ccc(Cl)c(Cl)c1` [Example 28, 9-chloro-2-(3,4-dichlorophenyl)-3,4-dihydro-2H-chromeno[2,3-c]pyridine-1,5-dione], for which the IC50 was 1.08 µM in test [1] and 0.57 µM in test [2]. As for `O=C1c2oc3c(Cl)cccc3c(=O)c2CCN1c1ccc(Cl)cc1F` [Example 29, 9-chloro-2-(4-chloro-2-fluorophenyl)-3,4-dihydro-2H-chromeno[2,3-c]pyridine-1,5-dione], the IC50 in test [1] was 2.36 µM; in test [2], 2.17 µM. Take `Cn1cc(N2CCc3c(oc4c(Cl)cccc4c3=O)C2=O)cn1` [Example 35, 9-chloro-2-(1-methyl-1H-pyrazol-4-yl)-3,4-dihydro-2H-chromeno[2,3-c]pyridine-1,5-dione]: the results for the concentration for half-maximal inhibition (IC50) in test [1] and in test [2] were 46.9 µM and 10.5 µM, respectively. Consider `O=c1c2c(oc3c(Cl)cccc13)CN(c1ccc(C(F)(F)F)cc1)CC2` [Example 39, 9-chloro-2-(4-(trifluoromethyl)phenyl)-1,2,3,4-tetrahydro-5H-chromeno[2,3-c]pyridin-5-one], for which the figures for the IC50 in test [1] and in test [2] were 0.96 µM and 5.65 µM, respectively. With `O=c1c2c(oc3c(Cl)cccc13)CN(c1ccc(Cl)c(Cl)c1)CC2` [Example 49, 9-chloro-2-(3,4-dichlorophenyl)-1,2,3,4-tetrahydro-5H-chromeno[2,3-c]pyridin-5-one], the IC50 in test [1] amounted to 40.1 µM.

`COCc1cc(Cl)ccc1N1CCc2c(oc3c(Cl)cccc3c2=O)C1=O` [Example 50, 9-chloro-2-(4-chloro-2-(methoxymethyl)phenyl)-3,4-dihydro-2H-chromeno[2,3-c]pyridine-1,5-dione]: the half-maximal inhibitory concentration (IC50) in test [1] was determined as 26.4 µM. With `COc1ccc(N2Cc3c(oc4c(Cl)cccc4c3=O)C2=O)cc1` [Example 52, 5-chloro-2-(4-methoxyphenyl)-1H-chromeno[2,3-c]pyrrole-3,9-dione], the IC50 in test [1] is 37.7 µM.
